Source: ChEMBL document CHEMBL3886271, “Method for selectively inhibiting ACAT1 in the treatment of alzheimer's disease” (2015)

Molecular target: T1, Sterol O-acyltransferase 2 (Homo sapiens, UniProt O75908)
T1 sequence (O75908 whole entry): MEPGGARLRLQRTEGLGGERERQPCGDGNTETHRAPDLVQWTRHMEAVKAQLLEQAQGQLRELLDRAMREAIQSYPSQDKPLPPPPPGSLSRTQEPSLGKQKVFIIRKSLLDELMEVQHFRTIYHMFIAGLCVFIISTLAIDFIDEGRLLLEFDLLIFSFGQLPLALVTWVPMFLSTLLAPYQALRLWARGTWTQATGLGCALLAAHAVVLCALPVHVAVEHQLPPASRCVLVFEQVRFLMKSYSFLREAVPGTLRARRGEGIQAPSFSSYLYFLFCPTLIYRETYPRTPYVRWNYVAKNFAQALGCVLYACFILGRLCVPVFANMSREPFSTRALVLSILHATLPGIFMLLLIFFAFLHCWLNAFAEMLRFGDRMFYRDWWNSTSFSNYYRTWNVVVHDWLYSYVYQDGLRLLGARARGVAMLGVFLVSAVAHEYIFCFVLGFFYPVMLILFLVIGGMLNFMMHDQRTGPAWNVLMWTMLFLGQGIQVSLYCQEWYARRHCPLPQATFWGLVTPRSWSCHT
Assay: Inhibition Assay: Methods for assessing the selectively of ACAT1 inhibitors are known in the art and can be based upon any conventional assay including, but not limited to the determination of the half maximal (50%) inhibitory concentration (IC) of a substance (i.e., 50% IC, or IC50), the binding affinity of the inhibitor (i.e., Ki), and/or the half maximal effective concentration (EC50) of the inhibitor for ACAT1 as compared to ACAT2. See, e.g., Lada, et al. (2004) J. Lipid Res. 45:378-386 and U.S. Pat. No. 5,968,749. ACAT1 and ACAT2 proteins that can be employed in such assays are well-known in the art and set forth, e.g., in GENBANK Accession Nos. NP-000010 (human ACAT1) and NP-005882 (human ACAT2). See also U.S. Pat. No. 5,834,283.

SMILES | IC50
CCCCCCCC(=O)CNc1cc(-c2ccccc2)nn1-c1ccccc1 | 53 µM
CCCCCCCCCCNc1cc(-c2ccccc2)nn1-c1ccccc1 | 97 µM
CCCCCCCCC(=O)CNc1cc(-c2ccccc2)nn1-c1ccccc1 | 75 µM
CCCC[C@H](C)[C@@H]1CC(=O)N[C@@H](Cc2ccccc2)C(=O)N[C@@H](C)C(=O)N[C@H](CC(C)C)C(=O)O1 [BEAUVERIOLIDE I] | 20 µM

The next compounds have a lower IC50 than those just listed; values first:

IC50 | SMILES
0.53 µM | CC(C)c1cccc(C(C)C)c1NC(=O)CC(=O)C(Cc1ccccc1)Cc1ccc(OC(=O)CCCCCCN2CCCCCC2=O)cc1 (stereo unspecified)
1.5 µM | CC(C)c1cccc(C(C)C)c1NC(=O)CC(=O)C(Cc1ccccc1)Cc1ccc(O)cc1 (stereo unspecified)
